Assay results: paper PMC9049938 (2020)

Key:
Assay in all cases: BLI
[1] = test system: N59a (DNA, aptamer) CCACCAGGCCAAACACGACCCCAAACA; settings: 150 mM NaCl, 2 mM MgCl2, 50 mM Tris-HCl pH 7.5
[2] = test system: N11 (DNA, aptamer) GAGGCAGCACTTCACACGATCGGACCCAAACTTTACCTTACCCCCATCTGCGTAATGACTGTAGTGATG; settings: 150 mM NaCl, 2 mM MgCl2; 50 mM Tris-HCl pH 7.5
[3] = test system: N16 (DNA, aptamer) GAGGCAGCACTTCACACGATATTTGGGGATCAGCCAGGTCAGTGCCACTGCGTAATGACTGTAGTGATG; settings: 150 mM NaCl, 2 mM MgCl2; 50 mM Tris-HCl pH 7.5
[4] = test system: N50 (DNA, aptamer) GAGGCAGCACTTCACACGATCGTCCCTGCCCCTGCCTCCTTTCTATGCTGCGTAATGACTGTAGTGATG; settings: 150 mM NaCl, 2 mM MgCl2; 50 mM Tris-HCl pH 7.5
[5] = test system: N59 (DNA, aptamer) GAGGCAGCACTTCACACGATCCACCAGGCCAAACACGACCCCAAACACTGCGTAATGACTGTAGTGATG; settings: 150 mM NaCl, 2 mM MgCl2; 50 mM Tris-HCl pH 7.5
[6] = test system: N41 (DNA, aptamer) GAGGCAGCACTTCACACGATCCCCCCCACACTCTTCCAACCCCCTCTCTGCGTAATGACTGTAGTGATG; settings: 150 mM NaCl, 2 mM MgCl2; 50 mM Tris-HCl pH 7.5

`C=C1[C@@H](O)[C@@H]2O[C@]3(CC[C@H](/C=C/[C@@H](C)[C@@H]4CC(C)=C[C@@]5(O[C@H](C[C@@](C)(O)C(=O)O)CC[C@H]5O)O4)O3)CC[C@H]2O[C@@H]1[C@@H](O)C[C@H](C)[C@H]1O[C@@]2(CCCCO2)CC[C@H]1C` was tested, and the KD [1] was 30.5 µM.
`C=C1[C@@H](O)[C@@H]2O[C@]3(CC[C@H](/C=C/[C@@H](C)[C@@H]4CC(C)=C[C@@]5(O[C@H](C[C@@](C)(O)C(=O)O)CC[C@H]5O)O4)O3)CC[C@H]2O[C@@H]1[C@@H](O)C[C@H](C)[C@H]1O[C@@]2(CC[C@H]1C)OCCC[C@H]2C` gave a KD [2] of 0.498 µM, a KD [3] of 0.729 µM and a KD [4] of 2.57 µM. It also gave a KD [5] of 0.17 µM, a KD [6] of 1890 µM and a KD ([1]; Table S3 prints 64 nM) of 0.064 µM.
